Data published in ChEMBL document CHEMBL6134780, “Halogenated retinoid derivatives as dual RARα and RXRα modulators for treating acute promyelocytic leukemia cells” (Eur J Med Chem, 2024).
The source made the active and inactive calls. The calls are words filed in the database; no cut-off is given here.

Assays:
[1] = Induction of apoptosis in human ATRA-resistant NB4-LR2 cells assessed as necrotic cells at 10 uM incubated for 24 hrs by Annexin V-FITC/PI staining based flow cytometric analysis (reference value: 0.08 %); type: functional
ATRA-resistant NB4-LR2 [2] = assay: Cell cycle arrest in human ATRA-resistant NB4-LR2 cells transfected with pLVX-shRXRalpha assessed as increase in PLK1 expression at 8 uM incubated for 12 hrs by Western blot analysis; type: functional, cell-based
ATRA-resistant NB4-LR2 [3] = assay: Cell cycle arrest in human ATRA-resistant NB4-LR2 cells transfected with pLVX-shRXRalpha assessed as increase in cyclin B1 expression at 8 uM incubated for 12 hrs by Western blot analysis; type: functional, cell-based
[4] = Induction of apoptosis in human ATRA-resistant NB4-LR2 cells assessed as viable cells at 10 uM incubated for 24 hrs by Annexin V-FITC/PI staining based flow cytometric analysis (reference value: 87.30 %); type: functional; settings: read-out: Activity
NB-4 [5] = assay: Induction of apoptosis in human NB4 cells assessed as late apoptotic cells at 10 uM incubated for 24 hrs by Annexin V-FITC/PI staining based flow cytometric analysis (reference value: 3.20 %); type: functional
NB-4 [6] = assay: Induction of apoptosis in human NB4 cells assessed as necrotic cells at 10 uM incubated for 24 hrs by Annexin V-FITC/PI staining based flow cytometric analysis (reference value: 0.07 %); type: functional
[7] = Induction of apoptosis in human ATRA-resistant NB4-LR2 cells assessed as late apoptotic cells at 10 uM incubated for 24 hrs by Annexin V-FITC/PI staining based flow cytometric analysis (reference value: 7.23 %); type: functional
ATRA-resistant NB4-LR2 [8] = assay: Induction of apoptosis in human ATRA-resistant NB4-LR2 cells transfected with pLVX-shRXRalpha assessed as increase in cleaved PARP expression at 8 uM incubated for 12 hrs by Western blot analysis; type: functional, cell-based
NB-4 [9] = assay: Induction of apoptosis in human NB4 cells assessed as early apoptotic cells at 10 uM incubated for 24 hrs by Annexin V-FITC/PI staining based flow cytometric analysis (reference value: 4.37 %); type: functional
NB-4 [10] = assay: Induction of apoptosis in human NB4 cells assessed as viable cells at 10 uM incubated for 24 hrs by Annexin V-FITC/PI staining based flow cytometric analysis (reference value: 92.36 %); type: functional; settings: read-out: Activity
[11] = Induction of apoptosis in human ATRA-resistant NB4-LR2 cells assessed as early apoptotic cells at 10 uM incubated for 24 hrs by Annexin V-FITC/PI staining based flow cytometric analysis (reference value: 5.38 %); type: functional
[12] = target: Retinoic acid receptor RXR-alpha (Homo sapiens, UniProt P19793); assay: Binding affinity to N-terminal His-tagged human RXRalpha LBD extracted from Escherichia coli BL21 (DE3) cells assessed as dissociation constant by fluorescence quenching assay
NB-4 [13] = assay: Cell cycle arrest in human NB4 cells assessed as accumulation of cells at G2/M phase at 1 uM incubated for 12 hrs by DAPI staining based flow cytometric analysis (reference value: 26 %); type: functional
[14] = Cell cycle arrest in human ATRA-resistant NB4-LR2 cells assessed as accumulation of cells at G0/G1 phase at 1 uM incubated for 12 hrs by DAPI staining based flow cytometric analysis (reference value: 42 %); type: functional
[15] = Induction of apoptosis in human ATRA-resistant NB4-LR2 cells assessed as late apoptotic cells at 1 uM incubated for 24 hrs by Annexin V-FITC/PI staining based flow cytometric analysis (reference value: 5.62 %); type: functional
[16] = Cell cycle arrest in human ATRA-resistant NB4-LR2 cells assessed as accumulation of cells at S phase at 1 uM incubated for 12 hrs by DAPI staining based flow cytometric analysis (reference value: 12 %); type: functional
NB-4 [17] = assay: Antiproliferative activity against human NB4 cells assessed as inhibition of cell viability at 0.125 uM incubated for 3 days by CCK8 assay relative to control; type: functional; settings: NB-4, 72 h, time 3 day
NB-4 [18] = assay: Cell cycle arrest in human NB4 cells assessed as accumulation of cells at S phase at 1 uM incubated for 12 hrs by DAPI staining based flow cytometric analysis (reference value: 20 %); type: functional
[19] = target: T1, Retinoic acid receptor alpha (Homo sapiens) (UniProt P10276); assay: Agonist activity at full length RARalpha LBD (unknown origin) transfected in HEK293T cells co-transfected with pG5luc reporter and Renilla-luc assessed as transactivation at 0.5 to 1 uM incubated for 12 hrs by luciferase reporter gene assay; type: cell-based; settings: filed as agonist, dose 0.5-1 µM
T1 sequence (whole entry): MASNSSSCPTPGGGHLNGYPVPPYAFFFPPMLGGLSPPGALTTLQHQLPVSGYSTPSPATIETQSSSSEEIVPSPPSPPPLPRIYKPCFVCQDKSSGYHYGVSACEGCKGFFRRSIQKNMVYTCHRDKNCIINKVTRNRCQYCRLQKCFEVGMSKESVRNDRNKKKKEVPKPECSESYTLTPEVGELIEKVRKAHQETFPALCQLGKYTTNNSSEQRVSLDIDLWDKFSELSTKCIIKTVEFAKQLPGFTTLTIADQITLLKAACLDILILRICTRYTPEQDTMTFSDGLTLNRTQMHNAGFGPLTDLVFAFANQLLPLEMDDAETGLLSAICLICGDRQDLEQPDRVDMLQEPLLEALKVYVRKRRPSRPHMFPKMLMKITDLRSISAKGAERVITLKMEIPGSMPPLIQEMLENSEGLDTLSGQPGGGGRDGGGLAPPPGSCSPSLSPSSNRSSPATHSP

[20] = Cell cycle arrest in human ATRA-resistant NB4-LR2 cells assessed as accumulation of cells at sub-G1 phase at 1 uM incubated for 12 hrs by DAPI staining based flow cytometric analysis (reference value: 18 %); type: functional
NB-4 [21] = assay: Induction of cell differentiation in human NB4 cells assessed as NBT positive cells at 0.5 uM incubated for 6 days by Nitro Blue tetrazolium chloride based microscopic analysis (reference value: 0 %); type: functional; settings: time 6 day
NB-4 [22] = assay: Cell cycle arrest in human NB4 cells assessed as accumulation of cells at G0/G1 phase at 1 uM incubated for 12 hrs by DAPI staining based flow cytometric analysis (reference value: 51 %); type: functional
NB-4 [23] = assay: Induction of apoptosis in human NB4 cells assessed as early apoptotic cells at 1 uM incubated for 24 hrs by Annexin V-FITC/PI staining based flow cytometric analysis (reference value: 1.77 %); type: functional
NB-4 [24] = assay: Antiproliferative activity against human NB4 cells assessed as inhibition of cell viability up to 2 uM incubated for 3 days by CCK8 assay relative to control; type: functional; settings: time 3 day
[25] = Induction of apoptosis in human ATRA-resistant NB4-LR2 cells assessed as early apoptotic cells at 1 uM incubated for 24 hrs by Annexin V-FITC/PI staining based flow cytometric analysis (reference value: 1.41 %); type: functional
NB-4 [26] = assay: Induction of apoptosis in human NB4 cells assessed as late apoptotic cells at 1 uM incubated for 24 hrs by Annexin V-FITC/PI staining based flow cytometric analysis (reference value: 2.23 %); type: functional
[27] = Cell cycle arrest in human ATRA-resistant NB4-LR2 cells assessed as accumulation of cells at G2/M phase at 1 uM incubated for 12 hrs by DAPI staining based flow cytometric analysis (reference value: 28 %); type: functional
NB-4 [28] = assay: Cell cycle arrest in human NB4 cells assessed as accumulation of cells at sub-G1 phase at 1 uM incubated for 12 hrs by DAPI staining based flow cytometric analysis (reference value: 2 %); type: functional
NB-4 [29] = assay: Antiproliferative activity against human NB4 cells assessed as inhibition of cell viability incubated for 3 days by CCK8 assay; type: functional, cell-based; settings: dose <= 3.5 µM, time 3.0 day
NB-4 [30] = assay: Induction of apoptosis in human NB4 cells assessed as late apoptotic cells at 5 uM incubated for 24 hrs by Annexin V-FITC/PI staining based flow cytometric analysis (reference value: 3.20 %); type: functional
[31] = Induction of apoptosis in human ATRA-resistant NB4-LR2 cells assessed as early apoptotic cells at 5 uM incubated for 24 hrs by Annexin V-FITC/PI staining based flow cytometric analysis (reference value: 5.38 %); type: functional
NB-4 [32] = assay: Induction of apoptosis in human NB4 cells assessed as early apoptotic cells at 5 uM incubated for 24 hrs by Annexin V-FITC/PI staining based flow cytometric analysis (reference value: 4.37 %); type: functional
[33] = Induction of apoptosis in human ATRA-resistant NB4-LR2 cells assessed as viable cells at 5 uM incubated for 24 hrs by Annexin V-FITC/PI staining based flow cytometric analysis (reference value: 87.30 %); type: functional; settings: read-out: Activity
[34] = Induction of apoptosis in human ATRA-resistant NB4-LR2 cells assessed as necrotic cells at 5 uM incubated for 24 hrs by Annexin V-FITC/PI staining based flow cytometric analysis (reference value: 0.08 %); type: functional
[35] = Induction of apoptosis in human ATRA-resistant NB4-LR2 cells assessed as late apoptotic cells at 5 uM incubated for 24 hrs by Annexin V-FITC/PI staining based flow cytometric analysis (reference value: 7.23 %); type: functional
NB-4 [36] = assay: Induction of apoptosis in human NB4 cells assessed as viable cells at 5 uM incubated for 24 hrs by Annexin V-FITC/PI staining based flow cytometric analysis (reference value: 92.36 %); type: functional; settings: read-out: Activity
NB-4 [37] = assay: Induction of apoptosis in human NB4 cells assessed as necrotic cells at 5 uM incubated for 24 hrs by Annexin V-FITC/PI staining based flow cytometric analysis (reference value: 0.07 %); type: functional

Chain of Retinoic acid receptor RXR-alpha (P19793 whole entry, the tested form may be a part): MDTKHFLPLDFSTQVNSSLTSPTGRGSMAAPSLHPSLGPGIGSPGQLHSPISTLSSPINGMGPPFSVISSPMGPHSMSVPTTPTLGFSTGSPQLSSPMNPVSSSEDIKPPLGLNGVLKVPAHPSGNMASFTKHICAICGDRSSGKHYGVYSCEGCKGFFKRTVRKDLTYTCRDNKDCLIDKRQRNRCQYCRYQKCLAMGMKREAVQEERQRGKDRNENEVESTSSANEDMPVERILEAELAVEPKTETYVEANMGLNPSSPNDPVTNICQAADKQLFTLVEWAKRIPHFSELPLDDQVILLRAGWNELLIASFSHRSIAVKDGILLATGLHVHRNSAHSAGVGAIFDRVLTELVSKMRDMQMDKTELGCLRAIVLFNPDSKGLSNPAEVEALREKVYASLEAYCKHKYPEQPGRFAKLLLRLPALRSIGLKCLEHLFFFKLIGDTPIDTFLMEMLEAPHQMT

## COc1ccc(CC(=O)N/N=C/c2c(O)ccc3ccccc23)cc1
[1]
  Activity: 0.77%
ATRA-resistant NB4-LR2 [2]
  Activity: inactive
ATRA-resistant NB4-LR2 [3]
  Activity: inactive
[4]
  viability at 10 µM: 63.5%
NB-4 [5]
  Activity: 18.15%
NB-4 [6]
  Activity: 1.78%
[7]
  Activity: 18.38%
ATRA-resistant NB4-LR2 [8]
  Activity: inactive
NB-4 [9]
  Activity: 20.4%
NB-4 [10]
  viability at 10 µM: 60.7%
[11]
  Activity: 17.31%

## Cc1cc2c(cc1-c1cc(/C=C/C(=O)O)ccc1O)C(C)(C)CCC2(C)C
[12]
  Kd: 549 nM

## Cc1cc2c(cc1C(=O)/C(Cl)=C/c1ccc(C(=O)O)cc1)C(C)(C)CCC2(C)C
NB-4 [13]
  Activity: 41%
[14]
  Activity: 7%
[15]
  Activity: 17.39%
[16]
  Activity: 8%
NB-4 [17]
  inhibition at 0.125 µM: ~10%
NB-4 [18]
  Activity: 12%
[19]
  Activity: Active; Highly Raralpha Selective Agonistic Activity Observed
[20]
  Activity: 19%
NB-4 [21]
  Activity: 15%
NB-4 [22]
  Activity: 43%
NB-4 [23]
  Activity: 27.43%
NB-4 [24]
  inhibition (INH): 100%
[25]
  Activity: 24.72%
NB-4 [26]
  Activity: 21.24%
[27]
  Activity: 66%
NB-4 [28]
  Activity: 4%
NB-4 [29]
  Activity: Dose-dependent-effect

## O=[N+]([O-])/C=C/c1cccc2ccccc12
NB-4 [30]
  Activity: 11.26%
[31]
  Activity: 28.83%
NB-4 [32]
  Activity: 9.62%
[33]
  viability at 5 µM: 42.3%
[34]
  Activity: 0.29%
[35]
  Activity: 28.61%
NB-4 [36]
  viability at 5 µM: 78.6%
NB-4 [37]
  Activity: 0.48%
